Experimental data from paper PMC7496275, “Pentathiepins: A Novel Class of Glutathione Peroxidase 1 Inhibitors that Induce Oxidative Stress, Loss of Mitochondrial Membrane Potential and Apoptosis in Human Cancer Cells” (Chemmedchem, 2020).

How the values were obtained:
HAP-1 cells = assay: Alkaline comet assay; assay type: cell-based, human; settings: 25 μM, 15 min at 0 °C
Experimental: To assess the induction of DNA strand breaks by pentathiepin 4 the Comet Assay was used. The SISO and HAP‐1 cell lines were treated with either 1 % DMF (solvent control), 20 μM H2O2 (positive control) or 25 μM 4 for 15 min at 0 °C. The DNA in the comet head corresponds to still intact genomic DNA while the tail forms due to the damage of nuclear DNA (Figure 9B). […] For HAP‐1 cells a greater reduction of intact DNA from 86 % in control cells to 66 % in pentathiepin‐incubated cells was observed.
Alkaline comet assay to assess induction of DNA strand breaks: The method was adapted from Olive and Banath.40 The alkaline protocol allows for the detection of single and double strand breaks as well as alkali‐labile sites and is based on the different electrophoretic mobility of intact and damaged nuclear DNA. […] The induction of strand breaks creates free charged ends that drift out and form the characteristic comet tail. The percentage of DNA that is located in the comet head was selected as descriptor, which corresponds to the amount of still intact genomic DNA.
Briefly, SISO and HAP‐1 cells were harvested by trypsinization and a single cell suspension with 50 000 cells per mL PBS was prepared. Per condition 50 000 cells were incubated on ice (to impair DNA repair) with either the solvent control DMF (1.0 %), 20 μM H2O2 or 25 μM 4 for 15 min. Afterwards, 400 μL of the cell suspension were mixed with 1.2 mL 1 % low melting point agarose (Carl Roth, Germany) at 40 °C and evenly distributed on agarose‐precoated (GeneOn, Germany) glass slides (Thermo Fisher). After 3 min polymerization the slides were horizontally submerged in lysis buffer (1.2 M NaCl (Carl Roth, Germany), 0.1 % N‐Lauryl‐Sarcosinate (Merck), 0.1 M Na‐EDTA, 0.26 M NaOH) and placed at 4 °C overnight. Before electrophoresis at 0.6 V/cm for 25 min the slides were rinsed three times in rinse/electrophoresis buffer (0.002 M Na‐EDTA, 0.03 M NaOH). Afterwards, the slides were neutralized in distilled water and subsequently stained with 250 μL of a 10 μg/mL PI in water solution for 20 min. Finally, the slides were analyzed with a Leica DMi8 fluorescent microscope and LASX software (Leica, Germany) and comets were scored with CometScore 2.0 (Rex A. Hoover, www.rexhoover.com). At least 100 comets were scored per condition.

HL-60 cells = assay: Western blot analysis of PARP cleavage; assay type: cell-based, human; settings: multiple IC50 concentrations, 6 h
Experimental: (§1) Another method for detecting caspase dependent apoptosis is to measure the cleavage of the enzyme poly‐(ADP‐ribose)‐polymerase (PARP) by western blotting. After an apoptotic stimulus, caspases, e. g. caspase‐3 and caspase‐7, cleave PARP, resulting in a loss of its function to mediate DNA‐repair processes. Cells were incubated with multiple IC50 concentrations of 4 for 6 and 24 h. […] Thus, pentathiepin 4 appears to induce the caspase dependent induction of apoptosis.
(§2) Western blot analysis of PARP: For western blot analysis the Biorad system with “Mini‐Protean® TGX Stain‐Fee™ Gels” and “Trans‐Blot® Turbo™ Transfer Pack Mini” PVDF‐membranes were used (Biorad, Germany). Protein lysates for analysis were prepared by seeding out 10^6 cells into T25 flasks and incubated with 4 in multiple concentrations of the viability IC50 for 6 and 24 h. […] Lysates were centrifuged at 18 000 g for 10 min at 4 °C and protein content was determined by the Bradford method against bovine serum albumin (BSA) as standard. […] Protein bands were detected with Clarity™ Western ECL Substrate (Biorad) and recorded by an Advanced Fluorescence Imager (INTAS, Germany).

Gumbus cells [1] = assay: Western blot analysis of PARP cleavage; assay type: cell-based, human; settings: multiple IC50 concentrations, 6 h
Experimental: as §1, §2

SISO cells = assay: Fluorescence microscopy for lipid peroxidation (BODIPY 581/591); assay type: cell-based, human; settings: 25 μM, 24 h
Experimental: In another set of experiments, LPO was visualized by fluorescence microscopy with a dye for lipid peroxides, BODIPY 581/591. […] Together, our results point to apoptosis and not ferroptosis as the mechanism of cell death induced by 4.
Fluorescence microscopy for the detection of lipid peroxidation: SISO cells (250 000 cells) were seeded out in 6‐well plates with an inserted coverslip. Cells were allow to attach for 24 h and then exposed to 25 μM 4 or 100 μM tert‐butyl‐hydroperoxide as a positive control. After 24 h coverslips were washed with PBS and stained with 1 μM BODIPY 581/591 in culture medium for 30 min. Cells on the coverslips were then mounted and examined with a Leica DMi8 fluorescence microscope at λ ex/em=460–500/512–542 nm for the oxidized BODIPY 581/591 and λ ex/em=540–581/592–668 for the reduced form.

[2] = Stability in presence of GSH by APCI-MS; assay type: physicochemical; settings: 10 mM GSH, 23 °C, up to 1 h
Experimental: It has been reported that pentathiepins are instable in the presence of thiols such as GSH.20 Thus, the stability of a representative pentathiepin, 4, in the presence of GSH was studied first by APCI‐MS. Incubations of 4 in the presence of 10 mM GSH, a biologically relevant concentration, were monitored at 23 °C for a period up to 1 h. […] Next, the stability of 4 was studied by RP‐HPLC in the same buffer and with the same GSH concentration (0.25 mM) used in the GPx assay (see below). Over the course of a 70 min incubation a nearly 30 % loss of the pentathiepin (Figure S32) was observed. However, since the GPx assay is only run for 20 min, the direct reaction between 4 and GSH would only account for a ca. 10 % loss of pentathiepin under assay conditions.

Gumbus cells [3] = assay: Cell morphology after incubation; assay type: cell-based, human; settings: 25 μM, 6 h

CCOc1c2c(c3cnc4cc(C)c(C)cc4n13)SSSSS2 [Compound 4]
percentage of intact DNA in comet head (HAP-1 cells): 66% | PARP cleavage (HL-60 cells): cleavage of PARP was detectable | PARP cleavage (Gumbus cells [1]): cleavage of PARP was detectable | lipid peroxidation (LPO) (SISO cells): no indication for LPO | stability in presence of GSH (mass spectrum) [2]: No changes in the mass spectrum | change in morphology (Gumbus cells [3]): membrane blebbing
